Measured values: patent US20030088312A1, “Use of cladribine on a stent to prevent restenosis” (priority 2000, published 2003)

System: human smooth muscle cells
Experiment: Inhibition of PDGF-stimulated human smooth muscle cell proliferation (cell count, day 6)
Assay type: cell-based
Details: ratio of IC50 values, SMC vs EC
Description: To assess the ability of cladribine to prevent cell proliferation, human smooth muscle or endothelial cells (Clonetics, Walkersville, Md.) were seeded at a density of 2000 cells/cm^2 (approximately […] cells/well) into each well of 12-well plates and cultured with 1.5 ml of growth medium containing 5% fetal calf serum (FCS). After 24 hours, the growth medium was changed and fresh medium containing 10 ng/ml platelet-derived growth factor AB (PDGF AB; LIFE Technologies), as well as various concentrations of cladribine (0.001-10,000 nM) were added with triplicate wells. Medium was replaced with fresh cladribine-containing medium after 3 days. On day six, cells were detached by trypsinization to yield a cell suspension, lightly centrifuged to pellet and then counted manually using a Neubauer hemacytometer system. Clee viability was assessed by trypan blue exclusion.
Table 1 provides the percent inhibition of the various tested concentrations of cladribine on human smooth muscle and endothelial cells in culture. Cladribine produced a concentration-related decrease in the proliferation of both smooth muscle and endothelial cells in this model system. […]

With `Nc1nc(Cl)nc2c1ncn2[C@H]1C[C@H](O)[C@@H](CO)O1` [Cladribine] the “potency as inhibitor of smooth muscle cells relative to endothelial cells” value was “approximately twice as potent”.
